Data taken from the supplement of paper PMC10307832.

How the values were obtained:
Experiment in all cases: relative viability (nuclei count vs DMSO), 5 days (fraction); higher = more cells survive
[1] = compound: CCOC1=CC=CC=C1N=NC2=C(NN(C2=O)C3=NC(=CS3)C4=CC=CC=C4)C [BAM7] + N=C(N)NC(=N)NCCc1ccccc1 [Phenformin] (partner 250 µM)
Method in brief: (§1)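 A single step with final 0.05% Triton X-100, 1% formaldehyde and 1 ug/ml Hoechst fixed the cells and stained nuclei 5 days after treatment. Lung cancer cell lines in 1536-well plates had been treated by pin tool the day after seeding with one drug alone or a fixed anchor-drug dose plus five library-drug doses (not always all listed) in √10 steps, and nuclei were counted on 4× images. Relative viability is the ratio of nuclei in treated wells to nuclei in vehicle wells, taken as the median of duplicate plates.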

[2] = compound: CCn1c(-c2nonc2N)nc2c(C#CC(C)(C)O)ncc(OC[C@H]3CCCNC3)c21 + CS(=O)(=O)CCNCc1ccc(-c2ccc3ncnc(Nc4ccc(OCc5cccc(F)c5)c(Cl)c4)c3c2)o1 [Lapatinib] (partner 2 µM)
Method in brief: as §1

[3] = compound: CCn1c(-c2nonc2N)nc2c(C#CC(C)(C)O)ncc(OC[C@H]3CCCNC3)c21 + CC(C)C[C@H](NC(=O)[C@H](Cc1ccccc1)NC(=O)c1cnccn1)B(O)O [Bortezomib] (partner 0.002 µM)
Method in brief: as §1

[4] = compound: CCOC1=CC=CC=C1N=NC2=C(NN(C2=O)C3=NC(=CS3)C4=CC=CC=C4)C [BAM7] + Cc1cc(Nc2cc(N3CCN(C)CC3)nc(Sc3ccc(NC(=O)C4CC4)cc3)n2)n[nH]1 [Tozasertib] (partner 0.1 µM)
Method in brief: as §1

Cell Line	relative viability ([1]; first compound 0.5 µM)	relative viability ([1]; first compound 5 µM)	relative viability ([1]; first compound 15.81 µM)	relative viability ([1]; first compound 50 µM)	relative viability ([2]; first compound 0.01 µM)	relative viability ([2]; first compound 0.03162 µM)	relative viability ([2]; first compound 0.1 µM)	relative viability ([2]; first compound 0.3162 µM)	relative viability ([2]; first compound 1 µM)	relative viability ([3]; first compound 0.01 µM)	relative viability ([3]; first compound 0.03162 µM)	relative viability ([3]; first compound 0.1 µM)	relative viability ([3]; first compound 0.3162 µM)	relative viability ([3]; first compound 1 µM)	relative viability ([4]; first compound 0.5 µM)	relative viability ([4]; first compound 5 µM)	relative viability ([4]; first compound 15.81 µM)	relative viability ([4]; first compound 50 µM)
201T	0.465	0.464	0.474	0.483	0.991	1.06	1.05	1.05	1.01	1.1	1.14	1.1	1.07	1.09	0.737	0.805	0.673	0.726
A549	0.161	0.213	0.219	0.216	0.93	0.99	1.01	0.842	0.781									
A-427	0.401	0.323	0.288	0.35	0.962	1.05	0.932	1.03	1.03	0.975	0.991	1.08	1.01	1.01	0.202	0.199	0.216	0.202
ABC-1	0.223	0.237	0.247	0.266	1.28	1.26	1	1.13	1.15	0.292	0.299	0.301	0.332	0.294	0.164	0.162	0.183	0.227
BEN	0.257	0.248	0.286	0.294	0.608	0.717	0.444	0.637	0.626	0.713	0.803	0.661	0.73	0.696	0.559	0.442	0.59	0.423
CAL-12T	0.576	0.601	0.586	0.607	0.613	0.665	0.845	0.585	0.595	0.939	0.852	1.08	1.16	1.1	0.311	0.257	0.236	0.24
COR-L23	0.411	0.5	0.443	0.424	0.935	0.994	0.985	0.916	1.05	1.01	0.961	0.97	0.884	0.938	0.177	0.197	0.133	0.183
COR-L 105	0.516	0.503	0.551	0.534	0.33	0.366	0.313	0.393	0.321	0.82	0.783	1	0.693	0.763	0.359	0.435	0.357	0.359
Calu-6					1.06	1.14	1.11	1.04	1.07	1.01	1.06	1.1	0.998	1.12				
ChaGo-K-1	0.425	0.351	0.393	0.394						0.972	0.795	1.01	0.99	0.954	0.226	0.229	0.197	0.262
EBC-1					0.219	0.197	0.213	0.236	0.227	0.549	0.566	0.521	0.488	0.444				
EKVX	0.241	0.235	0.198	0.231	0.235	0.203	0.223	0.206	0.223	1.01	0.862	1.15	0.994	0.965	0.424	0.36	0.183	0.333
EMC-BAC-2	0.567	0.533	0.535	0.61	0.871	0.83	0.866	0.88	0.938	1.02	1	0.996	1.06	1.07	0.302	0.291	0.289	0.272
EPLC-272H	0.291		0.322	0.281	0.905	0.998	0.907	0.788	0.909	0.859	0.957	0.894	0.96	0.847	0.252		0.275	0.334
H3255	0.353	0.343	0.386	0.384	0.259	0.202	0.217	0.276	0.228	0.634	0.679	0.83	0.788	0.688	0.652	0.757	0.376	0.497
HARA	0.425	0.51	0.431	0.428	0.718	0.7	0.684	0.554	0.95	1.1	1.14	1.08	1.07	1.11	0.117	0.116	0.093	0.0898
HCC-15	0.506	0.434	0.496	0.471	0.868	0.824	0.865	0.808	0.795	0.988	1.06	1.01	0.925	0.952	0.471	0.493	0.346	0.284
HCC-44	0.351	0.252	0.172	0.273	0.93	0.975	1.01	0.989	1.09	0.893	0.808	0.89	0.907	0.911	0.94	0.711	0.785	0.878
HCC-78	0.619	0.583	0.796	0.777	0.717	0.673	0.903	0.547	0.301	0.553	0.513	0.503	0.498	0.527	0.428	0.371	0.446	0.393

Cell Line	relative viability ([1]; first compound 0.5 µM)	relative viability ([1]; first compound 5 µM)	relative viability ([1]; first compound 15.81 µM)	relative viability ([1]; first compound 50 µM)	relative viability ([2]; first compound 0.01 µM)	relative viability ([2]; first compound 0.03162 µM)	relative viability ([2]; first compound 0.1 µM)	relative viability ([2]; first compound 0.3162 µM)	relative viability ([2]; first compound 1 µM)	relative viability ([3]; first compound 0.01 µM)	relative viability ([3]; first compound 0.03162 µM)	relative viability ([3]; first compound 0.1 µM)	relative viability ([3]; first compound 0.3162 µM)	relative viability ([3]; first compound 1 µM)	relative viability ([4]; first compound 0.5 µM)	relative viability ([4]; first compound 5 µM)	relative viability ([4]; first compound 15.81 µM)	relative viability ([4]; first compound 50 µM)
IA-LM					0.713	0.922	0.887	0.532	0.289	0.854	0.77	0.877	0.679	0.373				
LCLC-103H	0.334	0.354	0.336	0.327						1.02	1.12	1.08	1.07	0.937	0.445	0.513	0.402	0.51
LK-2	0.507	0.389	0.466	0.636	0.998	1.01	0.668	0.697	0.926						0.173	0.174	0.15	0.173
NCI-H358	0.343	0.383	0.369	0.376	0.453	0.485	0.449	0.4	0.398						0.136	0.0963	0.0944	0.108
NCI-H441	0.866	1.1	0.779	0.923						0.47	0.451	0.459	0.288	0.449	0.643	0.562	0.526	0.627
NCI-H522	0.671	0.768	0.614	0.712											0.574	0.57	0.561	0.583
NCI-H1299					0.927	0.967	0.998	0.947	0.982	1.02	1.04	0.992	0.988	1				
NCI-H1395	0.444	0.522	0.446	0.538	0.815	0.842	0.858	0.769	0.869						0.701	1.01	0.806	0.771
NCI-H1563	0.62	0.685	0.654	0.685	0.93	0.94	0.924	0.926	0.781	0.963	0.842	0.752	0.829	0.796				
NCI-H1623	0.606	0.561	0.542	0.673											0.389	0.367	0.357	0.371
NCI-H1648															0.565	0.356		0.434
NCI-H1703					0.998	1.23	1.05	0.739	0.662	0.327	0.391	0.339	0.201	0.209				
NCI-H1792	0.333	0.219	0.274	0.369	0.897	0.859	0.862	0.757	0.871	1.04	0.968	0.964	0.861	0.768				
NCI-H1793	0.342	0.338	0.348	0.317	0.75	0.699	0.577	0.548	0.939						0.274	0.269	0.223	0.262
NCI-H1944	0.223	0.199	0.205	0.22	0.767	0.825	0.751	0.773	0.819						0.25	0.253	0.257	0.257
NCI-H2170	0.385	0.362	0.388	0.371	0.283	0.254	0.266	0.261	0.302						0.664	0.748	0.501	0.793
NCI-H2342	0.59	0.739	0.594	0.521											0.453	0.519	0.387	0.374
SK-MES-1	0.721	0.724	0.607	0.659	0.46	0.425	0.507	0.424	0.406						1.03	0.907	0.752	0.772
SW 900	0.548	0.544	0.576	0.759											0.48	0.556	0.475	0.562
